Assay results published in the METLIN SMRT retention time set (Domingo-Almenara et al. 2019).

Test: gradient 5% acetonitrile 3 min, to 50% in 2 min, to 85% in 15 min, held 3 min, 100 µL/min
Conditions: column: Zorbax Extend-C18 2.1 x 50 mm; eluents: water / acetonitrile, 0.1% formic acid
Outline: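 Pure standards were run in mixtures of ~100 molecules by HPLC coupled to a quadrupole time-of-flight mass spectrometer. The column was a Zorbax Extend-C18 (2.1 × 50 mm, 1.8 μm) at 100 μL/min, with water and acetonitrile each containing 0.1% formic acid, in positive and negative ionization mode. Dead and dwell volumes were 40 μL and 900 μL. Retention time was taken from computationally picked adduct peaks, each manually inspected, with data collected over 3 months.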

SMILES | RP-LC retention time [s]
C[C@H](NC[C@H](O)CP(=O)(O)Cc1ccccc1)c1ccc(Cl)c(Cl)c1 | 722
CCCCNC(=O)c1ccc2c(c1)NC(=O)C(C(C)C)N2 (stereo unspecified) | 684
CCOC(=O)c1c(C)[nH]c(C)c1S(=O)(=O)N1CCC(C(=O)Nc2cccc(C#N)c2)CC1 | 797
CCn1c(C2CCN(C(=O)c3ccc(C(F)(F)F)s3)C2)nc2cccnc21 (stereo unspecified) | 782
N#Cc1cccc(C(=O)NC2CCN(c3cc(-c4cccs4)[nH]n3)C2)c1 (stereo unspecified) | 701
Cc1ccc(C2=NC3(CCN(C(=O)c4ccc5cc[nH]c5c4)CC3)ON2)cc1 | 755
Cc1ncc2c(n1)C[C@@H]1CC[C@H]2N1S(=O)(=O)c1ccc(F)c(C)c1 | 732
CCCn1cc(S(=O)(=O)Nc2ccccc2Cl)c2cccnc21 | 914
O=c1ccn(-c2cccc(F)c2)nc1-c1nc(-c2ccccc2F)no1 | 846
CN(CC1CCOC1)C(=O)c1ccccc1Cl (stereo unspecified) | 681
CCCN1C(=O)COc2ccc(-c3noc(COc4ccc(Cl)cc4)n3)cc21 | 1190
N#CCCSc1nnc2sc3ccccc3n12 | 828
CC(C)C(=O)Nc1ccc(-n2cnc(C(=O)NC3CCCCC3)c2)nc1 | 765
Cc1oc(-c2[nH]ncc2C(=O)N(C)C)cc1S(=O)(=O)Nc1ccccc1 | 609
Cc1ccc(N2C(=O)N(Cc3cccc(F)c3)S(=O)(=O)c3cccnc32)cc1 | 1080
COc1ccc(OC)c(S(=O)(=O)N2[C@H]3CC[C@@H]2c2cnc(-c4ccccc4)nc2C3)c1 | 1020
Cc1ccccc1-c1nc(-c2ccc3nnn(C)c3c2)no1 | 1060
COc1ccc(-c2nc3ncccn3c2Nc2cc(C)ccc2C)cc1 | 792
CCCn1cnc2cc(-c3noc(COc4cccc(C)c4)n3)ccc21 | 840
Cc1nc(NCCC2=CCCCC2)nc(N2CCOCC2)c1[N+](=O)[O-] | 965
COc1nccnc1N1CCC(NC(=O)Cc2ccsc2)C1 (stereo unspecified) | 611
O=C(NC1CC1)c1cc(-c2ccccc2)ns1 | 836
CCn1cc(CCNC(=O)c2c(F)cccc2Cl)c2cccnc21 | 708
c1ccc(OCc2nc(-c3ccc(-c4csc(C5CC5)n4)cc3)no2)cc1 | 1330
CC(C)COc1cc(=O)n2c(c1C(=O)NCC1CCCCC1)CCCCC2 | 864

SMILES | RP-LC retention time [s]
Cc1noc2nc(C)n(CC(=O)NCc3ccc(Cl)cc3)c(=O)c12 | 783
COc1ccc(CNS(=O)(=O)c2ccccc2-c2nc(-c3ccc(F)cc3)no2)cc1 | 1160
O=C(CSc1ncn[nH]1)c1ccc2c(c1)OCCO2 | 626
Cc1cnn(Cc2nc(-c3ccc(NC(=O)C(C)(C)C)cc3)oc2C)c1 | 863
CCN1CCC(N(Cc2ccc3c(c2)OCO3)C(=O)Nc2ccc(OC)c(OC)c2)CC1 | 616
COc1ccc(OC)c(NC(=O)CCc2c(C)nn(-c3cc(N(C)C)ncn3)c2C)c1 | 822
O=C1C2CC3N1CCC31c3ccccc3-n3c1c2ccc3=O (stereo unspecified) | 721
Cc1noc([C@@H]2CN(Cc3ccc(F)cc3Cl)C[C@H]2CO)n1 | 600
O=C(NCc1ccc(F)cc1F)c1ccc2ncnc(N3CCCCC3)c2c1 | 680
COc1ccc(CN2CC[C@@H]3CN(S(C)(=O)=O)[C@@H]3C2)cc1C | 617
Cc1ccc(Cn2nc3n(c2=O)CCCC3)cc1 | 702
O=C(NC1CCCCC1)c1nnc(-c2ccc(S(=O)(=O)N3CCCCC3)cc2)o1 | 1040
Cc1nnc(NC(=O)c2ccc(N3CCCC3)nn2)s1 | 594
Cn1nc2c(c1NC(=O)COc1ccc(Cl)cc1Cl)CCC2 | 815
Cc1ccc(N2CC(c3noc(-c4ccsc4)n3)CC2=O)cc1 (stereo unspecified) | 932
Cc1ccc(C)c(C(=O)Nc2cccn3cnnc23)c1 | 734
CCn1cc(-c2nc(C(=O)Nc3cc(F)ccc3C)cs2)c2cccnc21 | 899
Fc1ccc(-c2nc(-c3ccc4nncn4c3)no2)cc1F | 822
Cc1ccc(-c2nc(-c3cccc(-c4ccnn4C)c3)no2)c(C)c1 | 1330
CCCNC(=O)C1CCN(c2ccc(SCC(=O)NCc3ccc(C(F)(F)F)cc3)nn2)CC1 | 675
CC(C)CNC(=O)Cc1cn(C)c2ncccc12 | 595
O=C(CC1CCCC1)Nc1cnc(-c2cccnc2)nc1 | 689
Cc1nc(C(=O)NCCCOC(C)C)c(C)n1C1CCN(C)CC1 | 547
CCCCC(=O)Nc1nnc(SCc2nnc(-c3ccc4c(c3)OCO4)o2)s1 | 859

Results, then the compound that gave them:

RP-LC retention time [s] | SMILES
644 | Cn1c(=O)c(C(=O)NC2CC2)nc2ccccc21
568 | OC1CCC12CCN(Cc1cn[nH]c1-c1ccccc1)CC2 (stereo unspecified)
644 | COc1ccc(C(O)CN2CCN(c3ccc(C)cc3)CC2)cc1OC (stereo unspecified)
771 | COc1ccc(NC(=O)N2CCC3(CC2)CN(c2ccccc2)C3=O)cc1OC
803 | CCc1cc(=O)n(CC(=O)NCCc2ccc(Cl)cc2)c(N2CCOCC2)n1
748 | CCC(C)C(NC(=O)c1cccc(F)c1)C(=O)Nc1nc2ccccc2[nH]1 (stereo unspecified)
625 | CN1CCN(CCC(=O)N2CCC(c3c[nH]c4ccccc34)(c3c[nH]c4ccccc34)CC2)CC1
860 | CCc1ccccc1N1C(=O)CN(S(C)(=O)=O)CC1(C)C(=O)NCc1ccc(C)cc1 (stereo unspecified)
816 | CCn1c(=O)n(CC)c2cc(S(=O)(=O)c3ccccc3)c(NC(=O)C3CC3)cc21
760 | O=C(CN1C(=O)CSc2ccc(C(=O)N3CCCC3)cc21)NC1CCCCCCC1
839 | CCOc1ccc(NC(=O)COc2cc(C)nc(N3CCN(c4ccccc4)CC3)n2)cc1
763 | Cc1ccc(C)c(NC(=O)N2CCC3(CC2)NC(=O)c2ccccc2N3C)c1
784 | Cc1ccc(C)c(N2CCN(Cc3nc(-c4ccc(N5CCCC5)nc4)no3)CC2)c1
849 | O=C(c1ccc(Br)cc1)N1CCN(c2cc(-c3ccccc3)[nH]n2)CC1
971 | COc1cc(OC)c(NC(=O)N2CCCC(C)(C(=O)NCc3ccc(C)cc3)C2)cc1Cl (stereo unspecified)
665 | O=C(c1nc2ccccn2c1-c1ccsc1)N1CCCCC1
844 | Cc1ccc(CNC(=O)N2CCC(n3c(C(F)(F)F)nc4cccnc43)CC2)cc1
1160 | Cc1cccc(N2CCN(Cc3nc(-c4ccc(N5CCCCC5)nc4)no3)CC2)c1C
808 | O=C(Nc1ccc(OCc2nnc(-c3ccccc3)o2)cc1)c1ccoc1
756 | COC(=O)c1ccc2c(=O)n(CCc3ccccc3)c(N3CCN(c4ccccn4)CC3)nc2c1
639 | O=C(Nc1cccc2ccccc12)N1CCOCC1

RP-LC retention time [s] | SMILES
696 | O=C(CN1CCN(C(=O)Nc2ccccc2)CC1=O)N1CCN(c2ccccc2)CC1
647 | Cc1ccn2cc(-c3ccc(NC(=O)c4ccccc4Br)cc3)nc2n1
939 | Cc1ccc(-c2cc3n(n2)CCCN(C(=O)Cc2ccccc2F)C3)cc1
661 | CCc1nc2c(c(=O)n1CC(=O)NCc1cccc(C)c1)CN(Cc1ccccc1)CC2
610 | Cn1nc2n(c1=O)CCN(C(=O)c1ccc3c(c1)OCO3)CC2
948 | O=C(CN1c2ccc(F)cc2-c2ccccc2S1(=O)=O)Nc1ccc(F)cc1
609 | O=C(NC1CCCC1)C1(CCO)CCN(Cc2ccccc2)C1 (stereo unspecified)
976 | Cn1cnc2c(C(=O)Nc3ccc(F)c(Cl)c3)nn(-c3ccccc3)c2c1=O
1200 | Cc1ccc(NC(=O)C2CCCN(c3nc4c(s3)c(C)nn4-c3ccccc3)C2)c(C)c1 (stereo unspecified)
614 | Cc1c(Cl)cccc1NC(=O)NCC1(N2CCOCC2)CCOC1 (stereo unspecified)
633 | O=C(Nc1nc2ccccc2n1CCN1CCOCC1)c1ccc(Cl)cc1
767 | CC(C)C(=O)N1CCN(c2ccc(=O)n(-c3ccc(Cl)cc3)n2)CC1
1160 | Cc1cc(C)cc(Nc2nc(C)cc3nn(CC(=O)N4CCC(C)CC4)c(=O)n23)c1
635 | CCCC(NCc1ccc2c(c1)n(C)c(=O)n2C)c1ccccc1 (stereo unspecified)
1050 | O=C(NCc1ccc(Br)cc1)C1CCCN(c2nccnc2Oc2ccccc2)C1 (stereo unspecified)
832 | Cc1cccc(NC(=O)Cn2cc(S(=O)(=O)c3ccc(F)cc3)c3ccccc32)n1
544 | O=C(CNC(=O)c1ccc(=O)[nH]c1)Nc1ccc(-n2cnnn2)cc1
816 | COC(=O)c1ncn2c1C(=O)N(Cc1ccccc1F)C(C)(C(=O)NC1CCCCCC1)C2 (stereo unspecified)
789 | Cc1nc(-c2noc(-c3ccccc3)n2)cn1CC(=O)NCc1cccs1
992 | O=C1[C@H]2CN(Cc3cccc(Cl)c3F)C[C@H]2C(=O)N1CCc1ccccc1
806 | O=C(NC(Cc1ccccc1)c1nnc(N2CCSCC2)o1)C1CCCC1 (stereo unspecified)
